Source: ChEMBL document CHEMBL6182854, “Design, synthesis and biological evaluation of WEE1 degraders via HSP90-mediated targeting chimeras for target therapy of acute myeloid leukemia” (Eur J Med Chem, 2025)
Activity calls are given as the source filed them. No cut-off for these calls is given here.

Legend:
MV4-11 [1] = experiment: HEMTAC activity against HSP90/WEE1 in human MV4-11 cells assessed as induction of WEE1 degradation at 10 uM incubated for 12 hrs by Western blotting analysis; assay type: cell-based
MV4-11 [2] = experiment: Antiproliferative activity against human MV4-11 cells assessed as cell viability incubated for 72 hrs by CCK-8 assay; assay type: functional, cell-based; settings: MV4-11, 72 h
[3] = target: Heat shock protein HSP 90-alpha (Homo sapiens, UniProt P07900); experiment: Inhibition of N-terminal HSP90alpha (unknown origin) ATPase activity incubated for 3 hrs by fluorescence polarization assay
[4] = Toxicity in female NOD/SCID mouse xenografted with patient derived human Primary acute myeloid leukemic cell assessed as heart damage at 3 mg/kg administered via tail vein by H and E staining based optical microscopic analysis; assay type: organism-based; settings: in vivo, iv
[5] = Toxicity in male BALB/C mouse assessed as myelosuppression by measuring leukocytes level at 10 mg/kg administered via tail vein and measured on day 3; assay type: organism-based; settings: in vivo, iv, 72 h, time 3 day
[6] = Toxicity in female NOD/SCID mouse xenografted with patient derived human Primary acute myeloid leukemic cell assessed as increase in body weight at 3 mg/kg administered via tail vein and measured after 4 weeks; assay type: organism-based; settings: in vivo, iv, 672 h
MV4-11 [7] = experiment: Induction of cell cycle arrest in human MV4-11 cells assessed as accumulation of cells at G2/M phase incubated for 72 hrs by PI staining based flow cytometry; assay type: functional; settings: dose 30.0 µM
[8] = system: Primary acute myeloid leukemic cell; experiment: Antitumor activity against patient derived human Primary acute myeloid leukemic cell xenografted in female NOD/SCID mouse assessed as reduction in splenomegaly at 3 mg/kg administered via tail vein and measured after 4 weeks; assay type: functional, organism-based
[9] = Toxicity in female NOD/SCID mouse xenografted with patient derived human Primary acute myeloid leukemic cell assessed as liver damage at 3 mg/kg administered via tail vein by H and E staining based optical microscopic analysis; assay type: organism-based; settings: in vivo, iv
[10] = Toxicity in female NOD/SCID mouse xenografted with patient derived human Primary acute myeloid leukemic cell assessed as spleen damage at 3 mg/kg administered via tail vein by H and E staining based optical microscopic analysis; assay type: organism-based; settings: in vivo, iv
[11] = Toxicity in female NOD/SCID mouse xenografted with patient derived human Primary acute myeloid leukemic cell assessed as kidney damage at 10 mg/kg administered via tail vein by H and E staining based optical microscopic analysis; assay type: organism-based; settings: in vivo, iv
[12] = target: Cyclin-dependent kinase 1 (Homo sapiens) (UniProt P06493); experiment: Inhibition of CDK1 phosphorylation in human MV4-11 cells; assay type: cell-based
[13] = system: Primary acute myeloid leukemic cell; experiment: Antitumor activity against patient derived human Primary acute myeloid leukemic cell xenografted in female NOD/SCID mouse assessed as decrease in huCD45+ cells in spleen at 3 mg/kg administered via tail vein and measured after 4 weeks by flow cytometric analysis; assay type: functional, organism-based
MV4-11 [14] = experiment: Induction of cell cycle arrest in human MV4-11 cells assessed as accumulation of cells at G2/M phase at 30 nM incubated for 72 hrs by PI staining based flow cytometry; assay type: functional
[15] = Toxicity in male BALB/C mouse assessed as myelosuppression by measuring platelet level at 10 mg/kg administered via tail vein and measured on day 3; assay type: organism-based; settings: in vivo, iv, 72 h, time 3 day
[16] = Cytotoxicity against human PBMC cells assessed as reduction in cell viability up to 1000 nM incubated for 72 hrs by CCK-8 assay; assay type: toxicity, cell-based; settings: 1 µM
MV4-11 [17] = experiment: HEMTAC activity against HSP90/AKT in human MV4-11 cells assessed as induction of AKT degradation at 0.1 uM incubated for 12 hrs by Western blotting analysis; assay type: cell-based
[18] = Toxicity in female NOD/SCID mouse xenografted with patient derived human Primary acute myeloid leukemic cell assessed as lung damage at 3 mg/kg administered via tail vein by H and E staining based optical microscopic analysis; assay type: organism-based; settings: in vivo, iv
MV4-11 [19] = experiment: HEMTAC activity at HSP90/WEE1 in human MV4-11 cells assessed as induction of WEE1 degradation at 0.1 uM incubated for 12 hrs by Western blotting analysis; assay type: cell-based
MV4-11 [20] = experiment: Upregulation of WEE1 mRNA expression in human MV4-11 cells incubated for 12 hrs by qRT-PCR analysis; assay type: functional, cell-based; settings: dose 1-10 µM
[21] = Toxicity in male BALB/C mouse assessed as myelosuppression by measuring neutrophil level at 10 mg/kg administered via tail vein and measured on day 3; assay type: organism-based; settings: in vivo, iv, 72 h, time 3 day

Cyclin-dependent kinase 1 (Homo sapiens), sequence (P06493 whole entry, looked up): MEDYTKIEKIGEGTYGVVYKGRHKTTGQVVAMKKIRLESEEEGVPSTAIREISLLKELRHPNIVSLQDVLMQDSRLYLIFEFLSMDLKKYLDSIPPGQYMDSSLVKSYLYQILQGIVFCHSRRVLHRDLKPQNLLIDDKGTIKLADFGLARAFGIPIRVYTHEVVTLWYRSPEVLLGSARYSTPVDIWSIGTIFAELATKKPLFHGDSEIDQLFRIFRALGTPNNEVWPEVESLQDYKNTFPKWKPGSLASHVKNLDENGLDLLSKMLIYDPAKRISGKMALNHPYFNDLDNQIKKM

Question: For `C=CCn1c(=O)c2cnc(Nc3ccc(N4CCN(CCCCCNC(=O)CCC(=O)Nc5ccc6c(c5)CCN6C(=O)c5cc(C(C)C)c(O)cc5O)CC4)cc3)nc2n1-c1cccc(C(C)(C)O)n1`, which Activity (MV4-11 [1]) is on record?
Answer: Active

Question: What about the IC50 (MV4-11 [2]) of the same molecule?
Answer: 38.4 nM

Question: Which Activity (MV4-11 [1]) does the source give for `C=CCn1c(=O)c2cnc(Nc3ccc(N4CCN(CCNC(=O)c5noc(-c6cc(C(C)C)c(O)cc6O)c5-c5ccc(CN6CCOCC6)cc5)CC4)cc3)nc2n1-c1cccc(C(C)(C)O)n1` here?
Answer: Active

Question: What about the IC50 (MV4-11 [2]) of the same molecule?
Answer: 99.2 nM

Question: What does the source list for `CC(C)c1cc(C(=O)N2Cc3ccc(CN4CCN(C)CC4)cc3C2)c(O)cc1O` [ONALESPIB]?
Answer: IC50 [3]: 9.89 nM; IC50 (MV4-11 [2]): 6.13 nM

Question: What does the source list for `C=CCn1c(=O)c2cnc(Nc3ccc(N4CCN(CCCCNC(=O)CN5CCN(Cc6ccc(-n7c(C(=O)NCC)nnc7-c7cc(C(C)C)c(O)cc7O)cc6)CC5)CC4)cc3)nc2n1-c1cccc(C(C)(C)O)n1`?
Answer: Activity [4]: Non-toxic; Activity [5]: Non-toxic; Activity [6]: Non-toxic; Activity (MV4-11 [7]): Dose-dependent-effect; Activity [8]: Active; Activity [9]: Non-toxic; IC50 [3]: 16.8 nM; Activity [10]: Non-toxic; Activity [11]: Non-toxic; inhibition [12]: Active; Activity [13]: Active; Activity (MV4-11 [14]): Active; Activity [15]: Non-toxic; Activity (MV4-11 [1]): Active; Activity [16]: Non-toxic; Activity (MV4-11 [17]): Minimal_effect; Activity [18]: Non-toxic; Activity (MV4-11 [19]): Active; Activity (MV4-11 [20]): Active; Activity [21]: Non-toxic

Question: For `C=CCn1c(=O)c2cnc(Nc3ccc(N4CCN(CCCCCNC(=O)c5noc(-c6cc(C(C)C)c(O)cc6O)c5-c5ccc(CN6CCOCC6)cc5)CC4)cc3)nc2n1-c1cccc(C(C)(C)O)n1`, which Activity (MV4-11 [1]) is on record?
Answer: Active

Question: And the IC50 (MV4-11 [2])?
Answer: 24.2 nM

Question: With `C=CCn1c(=O)c2cnc(Nc3ccc(N4CCN(CCCCCNC(=O)CN5CCN(Cc6ccc(-n7c(C(=O)NCC)nnc7-c7cc(C(C)C)c(O)cc7O)cc6)CC5)CC4)cc3)nc2n1-c1cccc(C(C)(C)O)n1` as the molecule, how does the Activity (MV4-11 [1]) read?
Answer: Active

Question: What about the IC50 (MV4-11 [2]) of the same molecule?
Answer: 9.66 nM

Question: With `C=CCn1c(=O)c2cnc(Nc3ccc(N4CCN(CCNC(=O)CCC(=O)Nc5ccc6c(c5)CCN6C(=O)c5cc(C(C)C)c(O)cc5O)CC4)cc3)nc2n1-c1cccc(C(C)(C)O)n1` as the molecule, how does the Activity (MV4-11 [1]) read?
Answer: Active

Question: And the IC50 (MV4-11 [2])?
Answer: 13.1 nM

Question: With `CCNC(=O)c1noc(-c2cc(C(C)C)c(O)cc2O)c1-c1ccc(CN2CCOCC2)cc1` [LUMINESPIB] as the molecule, how does the Activity (MV4-11 [7]) read?
Answer: Active

Question: And the IC50 (MV4-11 [2])?
Answer: 1.98 nM
